Tests used:
Assay in all cases: relative viability (nuclei count vs DMSO), 5 days (fraction); higher = more cells survive
Bortezomib + Dasatinib = compound: CC(C)C[C@H](NC(=O)[C@H](Cc1ccccc1)NC(=O)c1cnccn1)B(O)O [Bortezomib] + Cc1nc(Nc2ncc(C(=O)Nc3c(C)cccc3Cl)s2)cc(N2CCN(CCO)CC2)n1 [Dasatinib] (partner 0.075 µM)
Outline: (§1)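 Nuclei were stained with Hoechst during a one-step fixation (final 0.05% Triton X-100, 1% formaldehyde, 1 ug/ml Hoechst) carried out 5 days after dosing, then counted on 4× images. The cells, lung cancer lines in 1536-well plates, had been dosed by pin tool the day after seeding with one drug alone or a fixed anchor-drug dose plus five library-drug doses (not always all listed) in √10 steps. Relative viability is the nuclei count in treated wells divided by that in vehicle wells, and each value is the median of duplicate plates.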

Bortezomib + Luminespib = compound: CC(C)C[C@H](NC(=O)[C@H](Cc1ccccc1)NC(=O)c1cnccn1)B(O)O [Bortezomib] + CCNC(=O)c1noc(-c2cc(C(C)C)c(O)cc2O)c1-c1ccc(CN2CCOCC2)cc1 [Luminespib] (partner 0.01 µM)
Outline: as §1

[1] = compound: CC1=CC(=NN1)NC2=CC(=NC(=N2)/C=C/C3=CC=CC=C3)N4CCN(CC4)C + O=C(c1cc(Cc2n[nH]c(=O)c3ccccc23)ccc1F)N1CCN(C(=O)C2CC2)CC1 [Olaparib] (partner 8 µM)
Outline: as §1

[2] = compound: CC1=CC(=NN1)NC2=CC(=NC(=N2)/C=C/C3=CC=CC=C3)N4CCN(CC4)C + Nc1nc2[nH]cc(CCc3ccc(C(=O)N[C@@H](CCC(=O)O)C(=O)O)cc3)c2c(=O)[nH]1 [Pemetrexed] (partner 0.2 µM)
Outline: as §1

Cell Line	relative viability (Bortezomib + Dasatinib; first compound 0.0002 µM)	relative viability (Bortezomib + Dasatinib; first compound 0.000632 µM)	relative viability (Bortezomib + Dasatinib; first compound 0.002 µM)	relative viability (Bortezomib + Dasatinib; first compound 0.006325 µM)	relative viability (Bortezomib + Dasatinib; first compound 0.02 µM)	relative viability (Bortezomib + Luminespib; first compound 0.0002 µM)	relative viability (Bortezomib + Luminespib; first compound 0.000632 µM)	relative viability (Bortezomib + Luminespib; first compound 0.002 µM)	relative viability (Bortezomib + Luminespib; first compound 0.006325 µM)	relative viability (Bortezomib + Luminespib; first compound 0.02 µM)	relative viability ([1]; first compound 0.08 µM)	relative viability ([1]; first compound 0.253 µM)	relative viability ([1]; first compound 0.8 µM)	relative viability ([1]; first compound 2.53 µM)	relative viability ([1]; first compound 8 µM)	relative viability ([2]; first compound 0.08 µM)	relative viability ([2]; first compound 0.253 µM)	relative viability ([2]; first compound 0.8 µM)	relative viability ([2]; first compound 2.53 µM)	relative viability ([2]; first compound 8 µM)
NCI-H1650	0.354	0.302	0.181	0.197	0.207	0.186	0.185	0.177	0.203	0.217	0.831	0.831	0.764	0.748	0.0952	0.37	0.373	0.379	0.268	0.146
NCI-H1944	0.225	0.212	0.222	0.214	0.137	0.715	0.697	0.763	0.548	0.167	0.416	0.406	0.467	0.29	0.207	0.566	0.652	0.611	0.365	0.312
NCI-H1792	0.722	0.59	0.504	0.759	0.443	0.321	0.452	0.282	0.451	0.229	0.437	0.501	0.431	0.374	0.031	0.624	0.888	0.722	0.0892	0.0324
Calu-6											0.577	0.558	0.469	0.289	0.0899					
NCI-H1299											0.961	0.924	0.975	0.616	0.167					
NCI-H1703											0.355	0.392	0.167	0.168	0.0731					
NCI-H1623	0.537	0.572	0.565	0.52	0.262	0.498	0.496	0.551	0.364	0.277										
ABC-1	0.6	0.317	0.243	0.224	0.233	0.439	0.523	0.262	0.252	0.227	0.904	0.946	1.01	0.647	0.324					
IA-LM											0.839	0.899	0.981	1.02	0.174					
HCC-366	0.664	0.474	0.726	0.481	0.0296						0.332	0.39	0.24	0.0237	0.0171	0.171	0.189	0.187	0.0462	0.0222
HCC-78	0.354	0.385	0.291	0.422	0.274						0.732	0.902	0.903	0.673	0.29	0.804	0.91	0.926	0.938	0.874
NCI-H1563	0.448	0.428	0.411	0.465	0.455	0.47	0.527	0.562	0.449	0.331						0.76	0.861	0.853	0.592	0.396
NCI-H1648											0.979	0.797	0.813	0.747	0.361	0.689	0.803	0.836	0.745	0.47

— the supplement of paper PMC10307832
